Results as given in ChEMBL document CHEMBL1201862, “PubChem BioAssay data set” (2004).
The source made the active and inactive calls.

Tests used:
[1] = target: T1, Neuropeptide Y receptor type 1 (Homo sapiens, UniProt P25929); format: functional;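 on IC50: HEK293 cells with a CNG channel challenged with NPY then isoproterenol; potency as antagonist that reverses NPY suppression of cAMP signal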
[2] = Luminescence Cell-Based Dose Retest to Confirm Inhibitors of Cancer Stem Cells. [Related pubchem assays (depositor defined):AID2717, AID2721]; format: functional; conditions: Homo sapiens
[3] = target: T2, Neuropeptide Y receptor type 2 (Homo sapiens, UniProt P49146); format: functional, cell-based;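 on IC50: HEK293 cells expressing the receptor and a CNG channel; stimulus was NPY near EC95 followed by isoproterenol to raise cAMP; antagonist potency measured as restoring cAMP signal that NPY suppresses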
T2 sequence (P49146 whole entry): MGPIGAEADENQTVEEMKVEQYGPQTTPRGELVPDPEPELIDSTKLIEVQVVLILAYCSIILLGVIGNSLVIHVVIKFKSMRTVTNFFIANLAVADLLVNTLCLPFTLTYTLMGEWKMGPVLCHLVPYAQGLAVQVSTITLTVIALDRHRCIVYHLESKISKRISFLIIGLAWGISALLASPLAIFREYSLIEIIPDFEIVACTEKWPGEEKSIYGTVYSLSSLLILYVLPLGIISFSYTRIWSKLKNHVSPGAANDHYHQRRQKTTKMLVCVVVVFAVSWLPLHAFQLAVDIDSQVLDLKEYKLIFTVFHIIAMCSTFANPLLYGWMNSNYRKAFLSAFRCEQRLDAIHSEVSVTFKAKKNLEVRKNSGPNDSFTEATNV

[4] = HEK293 cell cytotoxicity, dose response, cytotoxicity control, dry powder samples (AID 720567); format: functional, cell-based
[5] = HEK293T cell cytotoxicity, dose response, cytotoxicity control for HIV Vif inhibitor project, cherry-picks (AID 652208); format: functional, cell-based
cells [6] = format: functional, cell-based
[7] = inhibitors of intracellular T. cruzi replication, confirmation, NIH3T3 host cells, beta-gal luminescence (AID 2044); format: functional, cell-based;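 further: intracellular parasites grown in NIH/3T3 mouse fibroblasts as host cells; luminescent beta-galactosidase reporter signal from transgenic T. cruzi replicating inside host cells; inhibitors lower the luminescence signal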
cells [8] = format: functional, cell-based; remark: listed apart in the source
Nonstructural protein 1 = Nonstructural protein 1 (Influenza A virus, UniProt Q194T2); format: functional, Influenza A virus (A/California/07/2009(H1N1))
Chain of Nonstructural protein 1 (Q194T2 whole entry): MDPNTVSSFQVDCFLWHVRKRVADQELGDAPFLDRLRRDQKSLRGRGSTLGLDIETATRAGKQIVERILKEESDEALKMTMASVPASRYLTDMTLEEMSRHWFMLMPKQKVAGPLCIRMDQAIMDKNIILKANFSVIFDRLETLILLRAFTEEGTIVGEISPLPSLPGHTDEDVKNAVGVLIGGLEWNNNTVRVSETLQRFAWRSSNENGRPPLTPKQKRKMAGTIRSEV

HEK293 [9] = assay: inhibitors of LMP1-driven NF-kB reporter, dose response, cell-based, HEK293, luciferase, cherry-pick (AID 588343); format: functional; conditions: Homo sapiens
[10] = C. albicans growth with fluconazole, confirmation, fluorescence, retest (AID 2467); format: functional, cell-based
INS1 = assay: beta cell apoptosis inhibitors, cytokine rescue, dose response, luminescence, retest (AID 449756); format: functional, cell-based; conditions: Rattus norvegicus;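 further: cell death triggered by IL-1 beta plus TNF-alpha plus IFN-gamma mixture; protective hits raise ATP signal compared with cytokine alone wells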
[11] = Luminescence-based counterscreen assay for KLF5 inhibitors: dose response cell-based high throughput screening assay to identify cytotoxic compounds using the IEC-6 intestinal epithelial cell line. [Related pubchem assays: 1700 (Primary screen.), 1834 (Confirmation screen.), 1858 (Summary AID.), 1905 (Counterscreen.)]; format: functional
[12] = NIH-3T3 fibroblast cytotoxicity, dose response, cytotoxicity control, cell-based, fluorescence, Alamar Blue, secondary assay (AID 2327); format: functional;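 further: NIH-3T3 mouse fibroblasts cultured with fluconazole at 8 µg/mL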
[13] = cytotoxicity toward NIH3T3 fibroblasts, dose response, counter-screen, cell-based, ATP luminescence, mouse fibroblasts (AID 2010); format: functional;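 further: cells exposed to compound for about 90 hours before reading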
[14] = target: T1, Neuropeptide Y receptor type 1; assay: Fluorescence-based counterscreen for agonists of NPY-Y2: cell-based high-throughput dose response assay for agonists of NPY-Y1.; format: functional
[15] = target: T2, Neuropeptide Y receptor type 2; assay: Fluorescence-based cell-based high-throughput dose response assay for agonists of NPY-Y2. [Related pubchem assays: 1703 (Screening assay (CNGC inhibitors).), 1359 (Screening assay (NPY-Y2 potentiators or agonists).), 1304 (Screening assay (NPY-Y1 potentiators or agonists).), 1710 (Screening assay (NPY-Y2 agonists).), 1791 (Summary AID.)]; format: functional
HEK293 [16] = assay: Fluorescence-based counterscreen for potentiators or agonists of NPY-Y2: cell-based high-throughput dose response assay to identify inhibitors of cyclic nucleotide gated ion channel (CNGC) activity. In this assay, the parental HEK293 cell line transfected with a cyclic-nucleotide gated ion channel (CNGC)-based cAMP sensor is used to measure inhibition of isoproterenol-induced CNGC activity by test compound.; format: functional; conditions: Homo sapiens
cells [17] = assay: cells
HeLa = assay: Cytotoxicity counterscreen assay for transcriptional activators of heat shock protein 70 (Hsp70). [Related pubchem assays: 1203, 1252 ]; format: functional; conditions: Homo sapiens
[18] = control 3'UTR Renilla luciferase suppression, dose response, counter-screen for Shn3 inhibitor project, cell-based, Clone20-Shn3RL, cherry-picked (AID 624133); format: functional
[19] = target: T3, Replicative DNA helicase DnaB (Mycobacterium tuberculosis, UniProt P9WMR3); assay: DnaB intein splicing inhibitors, dose response, biochemical, cell-free fluorescence (AID 449749); format: functional
T3 sequence (P9WMR3 whole entry): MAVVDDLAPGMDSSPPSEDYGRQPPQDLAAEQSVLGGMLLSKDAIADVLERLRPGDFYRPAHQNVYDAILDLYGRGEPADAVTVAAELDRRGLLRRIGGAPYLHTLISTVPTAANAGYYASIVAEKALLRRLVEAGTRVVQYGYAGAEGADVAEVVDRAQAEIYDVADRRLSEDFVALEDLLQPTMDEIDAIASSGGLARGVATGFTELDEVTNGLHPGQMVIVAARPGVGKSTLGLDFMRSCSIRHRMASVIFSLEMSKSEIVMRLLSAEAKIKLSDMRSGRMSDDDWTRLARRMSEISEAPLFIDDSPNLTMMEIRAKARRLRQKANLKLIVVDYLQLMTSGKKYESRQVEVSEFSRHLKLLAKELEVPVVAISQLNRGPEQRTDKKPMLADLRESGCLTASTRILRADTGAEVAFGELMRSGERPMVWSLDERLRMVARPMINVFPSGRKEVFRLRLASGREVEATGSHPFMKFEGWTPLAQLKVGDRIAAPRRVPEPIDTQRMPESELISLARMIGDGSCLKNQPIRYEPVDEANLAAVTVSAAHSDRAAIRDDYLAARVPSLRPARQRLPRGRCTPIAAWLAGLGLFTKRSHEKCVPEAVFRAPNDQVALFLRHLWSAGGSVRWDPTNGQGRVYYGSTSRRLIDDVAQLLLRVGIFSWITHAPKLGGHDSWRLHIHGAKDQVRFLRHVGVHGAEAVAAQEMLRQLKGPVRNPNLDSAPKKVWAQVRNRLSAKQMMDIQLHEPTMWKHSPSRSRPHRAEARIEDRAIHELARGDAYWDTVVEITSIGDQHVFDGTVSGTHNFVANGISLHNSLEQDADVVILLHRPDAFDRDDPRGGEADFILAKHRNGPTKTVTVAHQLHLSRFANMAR

[20] = Intein inhibitors as potential Tuberculosis drugs, a cytotoxicity screen. [Related pubchem assays (depositor defined):AID2221, AID2223, AID434968, AID435010, AID449749, AID449750, AID489010]; format: functional
[21] = target: T4, High affinity choline transporter 1 (Homo sapiens, UniProt Q9GZV3); assay: CHT inhibitors, dose response, cell-based, 10-point CRC, membrane potential dye (AID 588401); format: functional;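 further: membrane potential dye fluorescence of choline-evoked depolarization via CHT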
T4 sequence (Q9GZV3 whole entry): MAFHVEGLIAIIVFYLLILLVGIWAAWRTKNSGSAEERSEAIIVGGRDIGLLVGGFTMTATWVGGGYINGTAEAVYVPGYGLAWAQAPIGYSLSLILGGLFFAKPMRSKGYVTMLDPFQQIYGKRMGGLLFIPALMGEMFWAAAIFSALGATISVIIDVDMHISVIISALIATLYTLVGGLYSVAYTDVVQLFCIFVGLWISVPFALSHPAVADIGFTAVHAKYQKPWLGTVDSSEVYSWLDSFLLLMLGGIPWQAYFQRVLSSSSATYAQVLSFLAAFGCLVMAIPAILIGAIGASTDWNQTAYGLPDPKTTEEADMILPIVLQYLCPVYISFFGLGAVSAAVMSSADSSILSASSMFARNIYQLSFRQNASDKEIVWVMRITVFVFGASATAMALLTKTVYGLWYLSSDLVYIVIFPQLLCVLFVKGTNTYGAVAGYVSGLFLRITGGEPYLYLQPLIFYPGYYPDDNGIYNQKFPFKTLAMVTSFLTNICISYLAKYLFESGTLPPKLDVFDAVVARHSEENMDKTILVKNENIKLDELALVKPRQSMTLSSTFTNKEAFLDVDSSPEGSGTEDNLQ

[22] = target: Potassium voltage-gated channel subfamily KQT member 2 (Rattus norvegicus, UniProt O88943, W236L); assay: KCNQ2 channel potentiators, dose response, mechanism study for KCNQ2 potentiator project, cell-based, automated electrophysiology (AID 2603); format: functional
Chain of Potassium voltage-gated channel subfamily KQT member 2 (O88943 whole entry W236L): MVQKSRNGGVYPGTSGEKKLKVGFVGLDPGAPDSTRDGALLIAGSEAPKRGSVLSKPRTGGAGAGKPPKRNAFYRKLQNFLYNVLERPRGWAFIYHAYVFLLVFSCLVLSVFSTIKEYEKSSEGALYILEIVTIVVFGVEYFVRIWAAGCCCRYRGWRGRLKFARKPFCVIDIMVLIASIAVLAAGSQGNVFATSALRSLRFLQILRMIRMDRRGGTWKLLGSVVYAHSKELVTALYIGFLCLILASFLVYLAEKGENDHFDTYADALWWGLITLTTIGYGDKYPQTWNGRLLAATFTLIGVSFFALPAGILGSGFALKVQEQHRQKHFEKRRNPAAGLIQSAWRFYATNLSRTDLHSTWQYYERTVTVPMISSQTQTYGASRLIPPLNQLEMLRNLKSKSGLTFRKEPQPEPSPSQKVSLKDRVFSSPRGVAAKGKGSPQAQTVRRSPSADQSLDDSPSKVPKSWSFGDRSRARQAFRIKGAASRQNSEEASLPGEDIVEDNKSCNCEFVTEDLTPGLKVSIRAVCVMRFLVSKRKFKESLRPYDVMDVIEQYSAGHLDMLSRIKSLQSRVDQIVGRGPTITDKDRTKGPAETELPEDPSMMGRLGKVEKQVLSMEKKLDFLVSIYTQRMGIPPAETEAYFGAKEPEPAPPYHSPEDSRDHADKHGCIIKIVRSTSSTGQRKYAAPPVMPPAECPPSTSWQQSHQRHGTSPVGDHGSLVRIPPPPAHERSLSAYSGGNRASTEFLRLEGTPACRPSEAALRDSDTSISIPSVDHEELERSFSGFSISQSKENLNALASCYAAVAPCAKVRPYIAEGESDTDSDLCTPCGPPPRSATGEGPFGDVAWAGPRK

Vero = Vero cell cytotoxicity, cytotoxicity control for flavivirus capping enzyme inhibitors (AID 588742); format: functional; conditions: Chlorocebus sabaeus
[23] = target: T4, High affinity choline transporter 1; assay: CHT inhibitors, dose response, cell-based, 5-point CRC, membrane potential dye (AID 504840); format: functional
Protein RecA = target: T5, Protein RecA (Mycobacterium tuberculosis, UniProt P9WHJ3); assay: Fluorescence Cell-Free Homogeneous Dose Retest to Identify Inhibitors of RecA-Intein Splicing Activity. [Related pubchem assays (depositor defined):AID2097, AID2223, AID489010, AID492950]; format: functional
T5 sequence (P9WHJ3 whole entry): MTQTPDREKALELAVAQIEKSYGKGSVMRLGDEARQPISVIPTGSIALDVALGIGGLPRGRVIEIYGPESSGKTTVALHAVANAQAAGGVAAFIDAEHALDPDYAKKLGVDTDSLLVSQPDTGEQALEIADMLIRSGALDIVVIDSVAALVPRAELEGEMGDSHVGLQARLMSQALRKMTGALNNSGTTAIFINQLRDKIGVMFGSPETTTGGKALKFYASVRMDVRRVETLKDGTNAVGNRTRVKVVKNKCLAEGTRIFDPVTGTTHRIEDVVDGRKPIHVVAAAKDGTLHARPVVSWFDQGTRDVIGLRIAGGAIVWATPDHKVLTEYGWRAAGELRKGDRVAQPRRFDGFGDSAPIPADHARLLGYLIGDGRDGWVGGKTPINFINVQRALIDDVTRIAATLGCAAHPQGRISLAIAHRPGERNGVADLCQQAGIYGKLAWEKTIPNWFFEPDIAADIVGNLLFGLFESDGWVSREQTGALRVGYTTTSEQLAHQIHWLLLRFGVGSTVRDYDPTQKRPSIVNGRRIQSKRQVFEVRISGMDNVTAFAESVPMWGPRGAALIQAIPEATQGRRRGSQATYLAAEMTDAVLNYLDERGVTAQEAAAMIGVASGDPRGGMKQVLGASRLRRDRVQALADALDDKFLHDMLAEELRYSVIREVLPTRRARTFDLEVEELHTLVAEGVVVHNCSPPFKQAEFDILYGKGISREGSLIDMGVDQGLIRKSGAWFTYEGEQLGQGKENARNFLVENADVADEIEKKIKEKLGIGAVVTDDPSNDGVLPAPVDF

[24] = target: Hepatocyte nuclear factor 4-alpha (Homo sapiens, UniProt P41235); format: functional, cell-based;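 further: biochemical luminescence-based dose-response counterscreen measuring inhibition of HNF4 dimerization, run alongside a screen for blockers of ABHD5–perilipin-5 interaction; split luciferase complementation of HNF4 fusion proteins in cell lysate measuring dimerization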
Chain of Hepatocyte nuclear factor 4-alpha (P41235 whole entry, the tested form may be a part): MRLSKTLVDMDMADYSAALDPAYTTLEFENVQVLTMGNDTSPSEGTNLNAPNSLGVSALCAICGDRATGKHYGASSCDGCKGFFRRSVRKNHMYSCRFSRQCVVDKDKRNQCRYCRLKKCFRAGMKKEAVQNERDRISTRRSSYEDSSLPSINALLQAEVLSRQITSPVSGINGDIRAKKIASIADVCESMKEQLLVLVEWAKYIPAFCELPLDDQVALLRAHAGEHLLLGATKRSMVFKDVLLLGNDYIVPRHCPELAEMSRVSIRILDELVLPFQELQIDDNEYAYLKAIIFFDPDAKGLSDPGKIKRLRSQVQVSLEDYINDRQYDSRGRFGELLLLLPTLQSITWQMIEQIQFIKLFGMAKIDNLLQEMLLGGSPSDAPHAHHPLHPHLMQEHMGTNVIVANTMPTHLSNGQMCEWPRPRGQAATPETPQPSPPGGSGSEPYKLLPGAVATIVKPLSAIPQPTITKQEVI

[25] = Shn3 3'UTR reporter inhibitors, dose response, cell-based, Clone20 osteoblasts, firefly luciferase, cherry-picked (AID 624132); format: functional;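 further: firefly luciferase luminescence from reporter carrying the Shn3 3'UTR in osteoblasts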
[26] = target: T6, Heat shock factor protein 1 (Mus musculus, UniProt P38532); assay: inhibition of MG132-induced HSE-luciferase signal, confirmation, cell-based, NIH3T3, luminescence, dose retest (AID 2382); format: functional;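 further: NIH3T3 fibroblasts with HSF1-driven luciferase reporter stressed by proteasome inhibitor MG132; luminescence from HSF1-driven luciferase expression after 8 hours of MG132 stress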
T6 sequence (P38532 whole entry): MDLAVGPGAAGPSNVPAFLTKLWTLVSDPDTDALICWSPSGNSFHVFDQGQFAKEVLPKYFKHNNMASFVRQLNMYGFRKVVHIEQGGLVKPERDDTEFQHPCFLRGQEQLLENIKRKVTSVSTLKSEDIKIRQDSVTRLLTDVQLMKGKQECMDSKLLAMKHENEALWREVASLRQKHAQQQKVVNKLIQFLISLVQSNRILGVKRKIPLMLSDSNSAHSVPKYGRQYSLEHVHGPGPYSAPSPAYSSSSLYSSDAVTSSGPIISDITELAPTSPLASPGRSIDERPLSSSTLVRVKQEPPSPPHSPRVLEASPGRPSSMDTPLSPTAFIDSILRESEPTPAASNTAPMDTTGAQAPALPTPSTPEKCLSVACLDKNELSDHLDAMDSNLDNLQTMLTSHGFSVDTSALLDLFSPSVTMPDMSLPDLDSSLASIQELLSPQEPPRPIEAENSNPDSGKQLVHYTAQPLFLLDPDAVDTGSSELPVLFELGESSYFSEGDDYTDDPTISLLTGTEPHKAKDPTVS

Genome polyprotein = Genome polyprotein (dengue virus type 2, UniProt P29990); assay: Dengue-2 NS5 methyltransferase inhibitors, primary screen, biochemical, confirmation dose response (AID 588689); format: functional
Chain of Genome polyprotein (P29990 2492-3391 limits assumed): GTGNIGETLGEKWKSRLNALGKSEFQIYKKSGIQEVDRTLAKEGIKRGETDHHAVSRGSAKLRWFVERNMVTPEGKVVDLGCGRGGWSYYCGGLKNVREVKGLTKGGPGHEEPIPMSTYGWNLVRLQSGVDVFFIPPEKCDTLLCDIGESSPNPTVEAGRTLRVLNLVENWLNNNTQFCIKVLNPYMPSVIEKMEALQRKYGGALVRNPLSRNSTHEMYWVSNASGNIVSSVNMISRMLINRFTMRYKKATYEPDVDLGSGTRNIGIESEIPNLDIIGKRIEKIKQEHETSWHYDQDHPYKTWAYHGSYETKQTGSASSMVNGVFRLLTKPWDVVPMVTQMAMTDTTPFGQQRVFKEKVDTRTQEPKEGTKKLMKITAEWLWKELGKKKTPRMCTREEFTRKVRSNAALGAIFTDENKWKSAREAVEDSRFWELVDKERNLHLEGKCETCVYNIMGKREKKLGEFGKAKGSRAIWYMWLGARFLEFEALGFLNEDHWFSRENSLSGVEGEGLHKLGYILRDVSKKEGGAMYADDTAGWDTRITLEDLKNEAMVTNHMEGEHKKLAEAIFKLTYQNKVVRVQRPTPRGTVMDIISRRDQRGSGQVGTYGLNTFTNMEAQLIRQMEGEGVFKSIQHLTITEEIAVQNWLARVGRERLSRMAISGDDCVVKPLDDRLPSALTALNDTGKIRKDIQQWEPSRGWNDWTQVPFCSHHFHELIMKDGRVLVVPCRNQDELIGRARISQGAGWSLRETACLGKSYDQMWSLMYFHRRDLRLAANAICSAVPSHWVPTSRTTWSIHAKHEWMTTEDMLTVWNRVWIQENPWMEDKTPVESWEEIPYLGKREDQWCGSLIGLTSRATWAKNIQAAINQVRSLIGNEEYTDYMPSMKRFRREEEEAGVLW

T1 sequence (P25929 whole entry): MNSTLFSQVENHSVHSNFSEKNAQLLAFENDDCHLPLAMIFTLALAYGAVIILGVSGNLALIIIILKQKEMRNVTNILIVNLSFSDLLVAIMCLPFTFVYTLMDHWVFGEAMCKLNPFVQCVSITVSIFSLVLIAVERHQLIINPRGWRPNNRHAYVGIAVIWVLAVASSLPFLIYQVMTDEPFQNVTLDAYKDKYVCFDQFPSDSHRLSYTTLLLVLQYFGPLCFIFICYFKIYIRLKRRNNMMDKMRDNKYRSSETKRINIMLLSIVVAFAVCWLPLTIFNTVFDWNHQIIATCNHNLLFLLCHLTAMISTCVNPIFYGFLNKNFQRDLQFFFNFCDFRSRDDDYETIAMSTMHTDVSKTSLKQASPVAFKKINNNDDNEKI

## Cc1ccc(CCC(=O)Nc2ncc(Cc3cc(Cl)ccc3Cl)s2)o1
[1]
  IC50: 7.27 µM (active)
[2]
  AC50: 0.251 µM (active)
[3]
  IC50: 9.88 µM (active)
[4]
  AC50: 7.96 µM (active)
[5]
  AC50: 34.7 µM (active)

## O=C(N/N=C/c1c(O)ccc2ccccc12)c1cccnc1
Cells [6]
  EC50: 8.55 µM (active)
[7]
  EC50: 3.14 µM (active)
Cells [8]
  EC50: > 350 µM (not active)
Nonstructural protein 1
  IC50: 12.1 µM (active)
HEK293 [9]
  AC50: 7.53 µM (active)
[10]
  EC50: 1.3 µM (active)
INS1
  AC50: 0.794 µM (active)
[11]
  IC50: 3.67 µM (active)
[12]
  EC50: > 160 µM (inactive)
[13]
  EC50: 9.03 µM (active)

## Cc1c(C(=O)O)[nH]c2ccc([N+](=O)[O-])cc12
[14]
  EC50: 6.64 µM (active)
[15]
  EC50: 6.99 µM (active)
HEK293 [16]
  EC50: 6.29 µM (active)

## Cc1c(Cc2ccccc2)c(=O)oc2cc(O)cc(O)c12
Cells [17]
  IC50: 36.1 µM (active)

## CCOc1ccc(NC(=O)c2ccc(NC(S)=NC3CC3)cc2)cc1
HeLa
  CC50: > 99 µM (not active)

## CC(C)c1nnc(NC(=O)c2nc(S(=O)(=O)Cc3ccc(F)cc3)ncc2Cl)s1
[18]
  AC50: 4.34 µM (active)
[19]
  AC50: 3.54 µM (active)
[20]
  CC50: 28.1 µM (active)
[21]
  IC50: 4.47 µM (active)
[22]
  EC50: 4.47 µM (active)
Vero
  CC50: 27.1 µM (active)
[23]
  IC50: 6.08 µM (active)
Protein RecA
  EC50: 2.73 µM (active)
[24]
  IC50: 4.69 µM (active)
[25]
  AC50: 2.83 µM (active)
[26]
  EC50: 3.33 µM (active)
Genome polyprotein
  IC50: 96 µM (active)
